Key:
[1] = Sirolimus remaining on and released from explanted stents (Example 34); format: in vivo, porcine; settings: for Stent-associated sirolimus, Drug Released, Mean: calculated from Day 0 baseline measurement
Procedure: (§1) Pharmacokinetic studies were performed on coated stents prepared and implanted as noted in Example 32. […] The coating encapsuled each of the stents.
(§2) Complete balloon deflation was verified with fluoroscopy.
(§3) Subjects were euthanized at the testing time points, and the tissue adjacent the stent (for non-limiting example, tissue surrounding the stent—referred to generally as arterial tissue) was extracted for analysis of the amount of pharmaceutical agent therein. Stents were also analyzed for the amount of pharmaceutical agent remaining on the coated stent at each time point. Testing methods as noted elsewhere herein were used to determine the amount of pharmaceutical agent remaining on the stent or in the tissue, and/or are methods that would be known to one of skill in the art.

[2] = Stented artery sirolimus concentration (Example 34); format: in vivo, porcine; settings: for Pharmaceutical agent released from the coated stent recovered in the analyzed arterial tissue: based on 135 micrograms on the original stent at time 0
Procedure: as §1, §2, §3

[3] = Whole blood rapamycin concentration after coated stent implantation, LC-MS/MS (Example 32); settings: every time point 5 minutes to day 180, every subject; one coated stent (135 micrograms sirolimus) per porcine subject
Procedure: Blood serum levels of porcine subjects having coated stents implanted were tested at multiple time points. The coated stents implanted were prepared as follows: coated stents for the study comprise a coating that was deposited on the stent by deposition of rapamycin in dry powder form by RESS methods and equipment described herein and deposition of polymer particles by RESS methods and equipment described herein. A PDPDP (Polymer, sinter, Drug, Polymer, sinter, Drug, Polymer, sinter) coating sequence was used wherein the polymer was 50:50 PLGA, and the drug was rapamycin. The sinter step was performed at 100° C./150 psi/10 min after each “P” (or polymer) layer. […] The coating was about 5-15 micrometers thick on each stent, and comprised a thicker coating on the abluminal surface (coating bias). […]
Multiple batches of coated stents were created, implanted in the porcine subjects, one coated stent per subject, and each subject's blood serum levels were tested at multiple time points. […] The balloon was then inflated at a steady rate to a pressure sufficient to target a visually assessed balloon-artery ratio of 1.1:1-1.2:1. Confirmation of this balloon-artery ratio was made when the angiographic images were quantitatively assessed. […]
The whole blood sample was tested for rapamycin concentration using LC-MS/MS. Samples were quantified for rapamycin using ascomycin as the internal standard. […]

[4] = Day 60, porcine coronary artery
[5] = Day 90, porcine coronary artery

CO[C@H]1C[C@@H]2CC[C@@H](C)[C@@](O)(O2)C(=O)C(=O)N2CCCC[C@H]2C(=O)O[C@H]([C@H](C)C[C@@H]2CC[C@@H](O)[C@H](OC)C2)CC(=O)[C@H](C)/C=C(\C)[C@@H](O)[C@@H](OC)C(=O)[C@H](C)C[C@H](C)/C=C/C=C/C=C/1C [rapamycin]
Stent-associated sirolimus, Drug Released, Mean ([1]; Day 0 baseline): 0 µg | Stent-associated sirolimus, Drug Remaining, Mean ([1]; Day 0 baseline, coated stent (PDPDP, 50:50 PLGA, 135 micrograms sirolimus)): 137.00 µg | Stent-associated sirolimus, Drug Remaining, Mean ([1]; Day 1, coated stent (PDPDP, 50:50 PLGA, 135 micrograms sirolimus) in porcine coronary artery): 137.00 µg | Stent-associated sirolimus, Drug Released, Mean ([1]; Day 1, porcine coronary artery): 1.67 µg | Stent-associated sirolimus, Drug Remaining, Mean ([1]; Day 3, coated stent (PDPDP, 50:50 PLGA, 135 micrograms sirolimus) in porcine coronary artery): 135.83 µg | Stent-associated sirolimus, Drug Released, Mean ([1]; Day 3, porcine coronary artery): 2.83 µg | Stent-associated sirolimus, Drug Remaining, Mean ([1]; Day 7, coated stent (PDPDP, 50:50 PLGA, 135 micrograms sirolimus) in porcine coronary artery): 127.83 µg | Stent-associated sirolimus, Drug Released, Mean ([1]; Day 7, porcine coronary artery): 9.17 µg | Stent-associated sirolimus, Drug Remaining, Mean ([1]; Day 14, coated stent (PDPDP, 50:50 PLGA, 135 micrograms sirolimus) in porcine coronary artery): 119.67 µg | Stent-associated sirolimus, Drug Released, Mean ([1]; Day 14, porcine coronary artery): 17.33 µg | Stent-associated sirolimus, Drug Remaining, Mean ([1]; Day 21, coated stent (PDPDP, 50:50 PLGA, 135 micrograms sirolimus) in porcine coronary artery): 103.68 µg | Stent-associated sirolimus, Drug Released, Mean ([1]; Day 21, porcine coronary artery): 33.32 µg | Stent-associated sirolimus, Drug Remaining, Mean ([1]; Day 30, coated stent (PDPDP, 50:50 PLGA, 135 micrograms sirolimus) in porcine coronary artery): 65.25 µg | Stent-associated sirolimus, Drug Released, Mean ([1]; Day 30, porcine coronary artery): 71.75 µg | Stent-associated sirolimus, Drug Remaining, Mean ([1]; Day 45, coated stent (PDPDP, 50:50 PLGA, 135 micrograms sirolimus) in porcine coronary artery): 3.89 µg | Stent-associated sirolimus, Drug Released, Mean ([1]; Day 45, porcine coronary artery): 133.12 µg | Stent-associated sirolimus, Drug Remaining, Mean ([1]; Day 60, coated stent (PDPDP, 50:50 PLGA, 135 micrograms sirolimus) in porcine coronary artery): 1.59 µg | Average incremental stent sirolimus elution (loss) rate [1, 4]: 0.15 ± 0.04 µg/day | Stent-associated sirolimus, Drug Released, Mean [1, 4]: 135.41 µg | Stent-associated sirolimus, Drug Remaining, Mean ([1]; Day 90, coated stent (PDPDP, 50:50 PLGA, 135 micrograms sirolimus) in porcine coronary artery): 0.11 µg | Average incremental stent sirolimus elution (loss) rate [1, 5]: 0.05 ± 0.00 µg/day | Stent-associated sirolimus, Drug Released, Mean [1, 5]: 136.89 µg | Average incremental stent sirolimus elution (loss) rate ([1]; peak around day 30, porcine coronary artery): 4.27 ± 1.69 µg/day | Pharmaceutical agent released from the coated stent recovered in the analyzed arterial tissue ([2]; at day 30): about 60% | Pharmaceutical agent released from the coated stent recovered in the analyzed arterial tissue ([2]; between days 3 and 60): about 40% | concentration at 1 day ([2]; pig, stented arterial tissue, other: coated stent implanted in coronary artery, 135 micrograms per stent, day 1, porcine, coated stent 135 micrograms sirolimus, read-out: Stented artery sirolimus concentration (tissue within stented segments)): 19600 ng/g | concentration at 3 day ([2]; pig, stented arterial tissue, other: coated stent implanted in coronary artery, 135 micrograms per stent, day 3, porcine, coated stent 135 micrograms sirolimus, read-out: Stented artery sirolimus concentration (tissue within stented segments)): 21400 ng/g | concentration at 7 day ([2]; pig, stented arterial tissue, other: coated stent implanted in coronary artery, 135 micrograms per stent, day 7, porcine, coated stent 135 micrograms sirolimus, read-out: Stented artery sirolimus concentration (tissue within stented segments)): 42200 ng/g | concentration at 14 day ([2]; pig, stented arterial tissue, other: coated stent implanted in coronary artery, 135 micrograms per stent, day 14, porcine, coated stent 135 micrograms sirolimus, read-out: Stented artery sirolimus concentration (tissue within stented segments)): 55900 ng/g | concentration at 21 day ([2]; pig, stented arterial tissue, other: coated stent implanted in coronary artery, 135 micrograms per stent, day 21, porcine, coated stent 135 micrograms sirolimus, read-out: Stented artery sirolimus concentration (tissue within stented segments)): 173000 ng/g | concentration at 30 day ([2]; pig, stented arterial tissue, other: coated stent implanted in coronary artery, 135 micrograms per stent, day 30, porcine, coated stent 135 micrograms sirolimus, read-out: Stented artery sirolimus concentration (tissue within stented segments)): 565000 ng/g | concentration at 45 day ([2]; pig, stented arterial tissue, other: coated stent implanted in coronary artery, 135 micrograms per stent, day 45, porcine, coated stent 135 micrograms sirolimus, read-out: Stented artery sirolimus concentration (tissue within stented segments)): 582000 ng/g | concentration at 60 day ([2]; pig, stented arterial tissue, other: coated stent implanted in coronary artery, 135 micrograms per stent, day 60, porcine, coated stent 135 micrograms sirolimus, read-out: Stented artery sirolimus concentration (tissue within stented segments)): 532000 ng/g | concentration at 90 day ([2]; pig, stented arterial tissue, other: coated stent implanted in coronary artery, 135 micrograms per stent, day 90, porcine, coated stent 135 micrograms sirolimus, read-out: Stented artery sirolimus concentration (tissue within stented segments)): 251000 ng/g | Concentration of rapamycin in whole blood (below quantifiable limit) [3]: < 0.100 ng/mL
